# Test system: Ratten
# Assay: Automatic recording of stereotypies in rats (Horowski method), dopamine-agonist effect
# Format: in vivo, männliche Wistar-Ratten
# Details: 60 min after treatment
# Excerpt: Die dopaminagonistische Wirkung wurde mit Hilfe der von Horowski beschriebenen Methode der automatischen Registrierung von Stereotypien an Ratten bestimmt (Arzneim. Forsch. 12, 2281-2286, 1978): Unmittelbar nach intraperitonealer Prüfsubstanz- bzw. Vehikelverabreichung werden männliche Wistar-Ratten (90-120 g) einzeln in Zwangskäfige aus Acrylglas gesetzt. Über ein vor dem Kopf der Tiere angebrachtes elektrodynamisches Aufnahmesystem wird die Zahl der Kontakte an einem stählernen Becher mit einem zentralen Metallstab als Folge der stereotypen Kau-, Leck- und Nagebewegungen während 60 Minuten registriert. Die Mittelwerte ± S.E.M. der Anzahl der Kontakte während 60 Minuten für die verschiedenen Behandlungsgruppen, die mit jeweils 12 Tieren besetzt sind, werden berechnet und die Signifikanz der Unterschiede zwischen den Mittelwerten der verschiedenen Prüfsubstanzdosen im Vergleich zur Vehikel-behandelten Kontrollgruppe mit Hilfe der einfachen Varianzanalyse in Verbindung mit dem Dunnett-Test ermittelt.
smiles,measurement,setting,value
"CCN(CC)C(=O)N[C@H]1C[C@@H]2c3cc(Br)cc4[nH]c(C)c(c34)C[C@H]2N(CC)C1 [CH2CH3, 3-(13-Brom-6-ethyl-2-methyl-8α-ergolinyl)-1,1-diethyl-harnstoff]",Stereotypien(counts pro 60 Minuten) (Mittelwert ± S.E.M.),"dose 0.025 mg/kg intraperitoneal, n=12, vehicle control 2137 ± 849",1943 ± 472 counts pro 60 Minuten
same,Stereotypien(counts pro 60 Minuten) (Mittelwert ± S.E.M.),"dose 0.1 mg/kg intraperitoneal, n=12, vehicle control 2137 ± 849",2470 ± 548 counts pro 60 Minuten
same,Stereotypien(counts pro 60 Minuten) (Mittelwert ± S.E.M.),"dose 0.39 mg/kg intraperitoneal, n=12, xx: p<0.01 vs. control, vehicle control 2137 ± 849",7499 ± 1342xx counts pro 60 Minuten
same,Stereotypien(counts pro 60 Minuten) (Mittelwert ± S.E.M.),"dose 1.56 mg/kg intraperitoneal, n=12, xx: p<0.01 vs. control, vehicle control 2137 ± 849",8066 ± 1248xx counts pro 60 Minuten
same,Stereotypien(counts pro 60 Minuten) (Mittelwert ± S.E.M.),"dose 6.25 mg/kg intraperitoneal, n=12, xx: p<0.01 vs. control, vehicle control 2137 ± 849",7381 ±1336xx counts pro 60 Minuten

# — patent publication EP0418990A2, “13-Bromo and 13,14-dibromo ergoline, their preparation and their use” (SCHERING AKTIENGESELLSCHAFT, priority 1989, dated 1991)
